Literature values in US20130337054A1, “TREATMENT OF EXCESSIVE MENSTRUAL BLOOD LOSS BY INTRAVAGINAL ADMINISTRATION OF LOW DOSES OF ANTIFIBRINOLYTIC OR HEMOSTATIC AGENT” (ARSTAT Inc., priority 2011, published 2013).

What was measured:
[1] = test system: postoperative bleeding complications; details: mouthwash, compared to placebo; cited from earlier work
menorrhagia = details: oral, cited from earlier work
[2] = cited from earlier work
[3] = test system: menorrhagia (menstrual blood loss); details: oral; cited from earlier work
postoperative blood loss = details: cited from earlier work

Compound	incidence of postoperative bleeding complications [1]	risk of gastrointestinal adverse events (menorrhagia; 6 g/day)	efficacy in relation to dose (menorrhagia; EMEA 2000)	plasma concentration ([2]; after a mouth rinse)	saliva concentration, maximum level ([2]; after a mouth rinse)	time saliva concentration remained at a therapeutic level ([2]; after a mouth rinse)	drug in saliva samples ([2]; after an oral tablet)	mean drug plasma concentration ([2]; after an oral tablet) [µg/mL]	difference versus placebo in reduction of large stains, small and large clots and changes in serum ferritin levels [3]	plasma drug levels (postoperative blood loss; in vivo)	postoperative blood loss (postoperative blood loss; locally administered)
NC[C@H]1CC[C@H](C(=O)O)CC1 [tranexamic acid]	reduce the incidence	increased	dose-dependent increase in efficacy	below 2 mcg/mL	above 200 mcg/mL	more than two	not detected	7	no statistically significant differences	–	–
aprotinin	–	–	–	–	–	–	–	–	–	without detectable plasma drug levels	Reduction
